Test results published in PMC12250211, “Discovery of Novel Genes Encoding Antimicrobial Peptides from the Pedobacter silvilitoris Genome with Broad-Spectrum Antimicrobial Activity” (International Journal of Molecular Sciences, 2025).
Ends that are not written are not given here.

Key:
[1] = tested on: Staphylococcus aureus (ATCC 6538); experiment: Microtiter plate antimicrobial assay (relative growth rate, A600); format: cell-based; conditions: synthetic peptide; for MIC50: 10 mg/mL stock in distilled water, 10^6 CFU/mL, overnight culture 37 °C, A600, Figure 5B
Description: (§1) The cell-free supernatant of P. silvilitoris or all E. coli DH5α strains containing cloned AMPs was collected after 24 h of culture and filtered through a 0.2-μm syringe (mixed cellulose esters (MCE), Merck, Darmstadt, Germany), and finally the cell-free supernatant was used for the evaluation of antimicrobial activity. The cell-free supernatant from the E. coli DH5α, harboring only the plasmid vector without the PS_AMP genes, was confirmed as a negative control to have very little effect on antimicrobial activities. The synthesized AMPs were suspended at a concentration of 10 mg/mL in distilled water and then used for antimicrobial activity.
(§2) The antimicrobial activities against S. Typhimurium (KCTC12401), E. coli (ATCC 10536), B. cereus (ATCC 11778), S. iniae (KCTC3657), S. aureus (ATCC 6538) and C. albicans (KCTC7122) were analyzed using the microtiter plate method and expressed as minimal inhibition concentration (MIC); the bacteria pre-cultured overnight (O/N) were mixed with 10^6 CFU/mL with the cell-free supernatant or the synthetic peptides, the reaction mixtures were added to the microtiter plate, and finally the reactivity was observed by the O/N culture at 37 °C. […] The relative activity of the treated samples was then expressed as a ratio of their A600 values to that of the control.Relative growth rate = A/B A: the treated sample A600 value B: non-treated (control) A600 value

[2] = tested on: Escherichia coli (ATCC 10536); experiment: as above; format: cell-based; conditions: synthetic peptide, 10 mg/mL stock in distilled water, 10^6 CFU/mL, overnight culture 37 °C, Figure 5A
Description: as §1, §2

Sequence | MIC50 [1] | estimated MIC50 ([1]; test strain not printed, AMP4.1 value agrees with the S. aureus value of b25) | MIC50 [2]
DKGLEKTKDNFF [PS_AMP4.1] | 2200 µg/mL |  | 
GLFDFFKKKDKTTDEQEALDK [PS_AMP4.2] |  | 3000 µg/mL | 
LKLKKEQIELLKKIANK [PS_AMP11.1] | 2000 µg/mL |  | 1900 µg/mL
